Values joined by “and” are separate entries in the source; they are usually repeats but may differ in a detail not shown here. Equal values may be shown once. Read-outs that look alike come from different tables or passages of the source.
Legend:
CD4 cells = test: CD4 cell counts in long term AZT recipients related to codon 215 genotype; type: in vivo, human (HIV-infected patients); conditions: for CD4 decline after serum mutation / mean decrease of CD4 cells after serum mutation: 19 patients; for mean CD4 count at the start of therapy: 26 patients who developed codon 215 mutation in serum
Description: Cryopreserved PBMC and serum from 40 participants in AIDS Clinical Trial Group (ACTG) protocols 019 (30 patients) and 016 (10 patients) at Stanford University Medical Center AIDS Clinical Trial Unit were used in this study. Patients at enrollment in these studies were AZT naive, had >200 CD4 cells/μl and had few (016) or no symptoms (019) referable to HIV infection. They were subsequently treated with AZT for 2 to 4 years. The most common dosage was 500 mg per day.
CD4 cell counts were obtained approximately every three months on each patient. All counts were performed at Stanford's ACTG-qualified cytofluorometry lab. Samples were stained with monoclonal antibodies to CD3, CD4, and CD8. The absolute CD4 count was calculated by multiplying the percent CD4 by the total lymphocyte count.
(§1) All comparisons between the patients with mutant and wild type strains were performed using the student's t-test. The calculations on the IC90s determined by the zidovudine sensitive assay were performed using the logl10 transformed IC90 (i.e., geometric means were used rather than arithmetic means).

[1] = tested on: HIV virus stock from patient PBMC; test: AZT sensitivity assay (inhibition of P24 production in donor PBMC); type: cell-based; conditions: Human immunodeficiency virus 1, PBMC
Description: Patient PBMC were cocultured with mitogen-stimulated PBMC from healthy HIV-seronegative donors. Supernatants from these cultures were collected and frozen when the HIV P24 antigen concentration exceeded 10,000 pg/ml. 30-100 TCID50 (50% tissue culture infectious dose) of virus stock was used to infect one million donor PBMC pretreated with different concentrations of AZT (0.0 μM, 0.005 μM, 0.05 μM, 0.5 μM, 5.0 μM). After 7 days, P24 antigen was measured in the cell free supernatant from the cultures with and without zidovudine. The concentration of AZT required to inhibit P24 production by 90% (IC90) as compared to the drug free cultures was determined by nonlinear regression analysis (Chou et al., 1984, Adv. Enzyme Regulation 22:27-55).
as §1

[2] = tested on: HIV with codon 215 mutation; conditions: mutation at codon 215; cited from earlier work
plasma HIV RNA = conditions: patients receiving AZT; ultracentrifugation, 40 cycles (Ottman et al.); cited from earlier work
[3] = 11 patients wild type in serum over 34 months

Cc1cn([C@H]2C[C@H](N=[N+]=[N-])[C@@H](CO)O2)c(=O)[nH]c1=O [AZT, zidovudine]
CD4 increase (CD4 cells; [3]): 2% | increase of CD4 cells (CD4 cells; [3]): 7±92 CD4 cells/μl | CD4 decline after serum mutation (CD4 cells; at 12 months): 40% | mean decrease of CD4 cells after serum mutation (CD4 cells; at 12 months): 170±121 CD4 cells/μl | CD4 decline after serum mutation (CD4 cells; at six months): 25% | mean decrease of CD4 cells after serum mutation (CD4 cells; at six months): 100±116 CD4 cells/μl | mean increase in absolute CD4 count, start of therapy to end of study (CD4 cells; 21 patients wild type at codon 215): 11% | Starting absolute CD4 (CD4 cells; 21 patients wildtype at codon 215 in PBMC): 397 cells/μl and 397 ± 124 cells/μl | mean CD4 count at first detection of codon 215 mutation in serum (CD4 cells; 26 patients): 444±206 cells/μl and 444 cells/μl | mean CD4 count at the start of therapy (CD4 cells): 398±139 cells/μl and 398 cells/μl | mean CD4 count at the start of therapy (CD4 cells; listed as zidovudine): 398±139 cells/μl | starting CD4 count (CD4 cells; patients who remained wild type in serum): 397±115 cells/μl | CD4 % at time of PCR analysis (CD4 cells; wildtype at codon 215 in PBMC): 25% and 25 ± 9% | Starting CD4 % (CD4 cells; wildtype at codon 215 in PBMC): 26 ± 8% | Absolute CD4 at time of PCR analysis (CD4 cells; wildtype at codon 215 in PBMC, 33 ± 8 months of AZT): 424 cell/μl and 424 ± 210 cell/μl | Starting CD4 % (CD4 cells; {}): 25 ± 6% | decrease in absolute CD4 count, start of therapy to end of study (CD4 cells; {}): 50% | IC90 ([1]; 168 h, isolates from AZT-naive patients, 7 days, read-out: IC90 (inhibition of P24 production by 90%), range): 2 to 38 nM | IC90 ([1]; nine patients with a mutation at codon 215, read-out: IC90 range): 30 to 8000 nM | IC90 ([1]; read-out: IC90 range, eight patients with wild type form at codon 215): 20 to 280 nM | IC90 ([1]; read-out: geometric mean IC90, eight patients with wild type form at codon 215, post-treatment PBMC): 40 nM | IC90 ([1]; read-out: geometric mean IC90, nine patients with a mutation at codon 215): 410 nM | decrease in zidovudine susceptibility [2]: 16 fold | patients with detectable plasma HIV RNA signal (plasma HIV RNA): 24 of 25

Source: patent USRE38352E1, “Polymerase chain reaction assays for monitoring antiviral therapy and making therapeutic decisions in the treatment of acquired immunodeficiency syndrome” (priority 1992, dated 2003)
